Data set [1] deals with A172, H1299, HeLa, U87, FL5.12, and MEF cell lines. Briefly: Proliferation assay of a panel of cell lines treated with respiration inhibitors. The data set is classed as cell-based. The following applies: respiration inhibitor alone. Here is the method: (§1) 143B, A172, H1299, HeLa, U87 and MEF cells were cultured in Dulbecco's Modified Eagle's Medium (DMEM) (Gibco) supplemented with 10% fetal bovine serum (FBS) and penicillin-streptomycin. FL5.12 cells were cultured in the same medium and supplemented with 5 μg/mL recombinant mouse IL-3 (R&D Systems). 143B cybrid cell lines (WT Cybrid and CytB) were cultured in DMEM with 10% FBS, penicillin-streptomycin, and 0.1 mg/mL uridine. All cells incubated at 37° C. with 5% CO2.
(§2) Adherent cell lines growing in log phase were trypsinized, counted, and plated onto 6 well dishes (Corning) in 2 mL complete DMEM and incubated overnight. Initial seeding density was 2E4 cells per well for 143B, A172, H1299, HeLa, 143B WT Cybrid, and MEFs and 3E4 cells for 143B CytB and U87 cells. The following day, one plate of cells was counted to determine the initial cell count at the time of treatment. Cells were washed 2 times with 2 mL phosphate buffered saline (PBS) and 4 mL media premixed with the indicated treatments was added. FL5.12 cells, a suspension cell line, were washed 2 times in PBS and added directly to media containing the indicated treatments and 5 μg/mL recombinant mouse IL-3. Proliferation rate assay media was DMEM without pyruvate containing 10% dialyzed FBS, penicillin-streptomycin, and 0.1 mg/mL uridine, unless otherwise noted. For these cell lines at these seeding densities it was determined that for 4 days the cells maintained logarithmic proliferation (data not shown), therefore final cell counts were measured 4 days after treatment. Cells were counted using Cellometer Auto T4 Plus Cell Counter (Nexcelom Bioscience). Proliferation rate was determined using the following formula: Proliferation Rate (Doublings per day)=(log2(Final cell count (day 5)/Initial cell count (day 1))/4 (days)

The subject of data set [2] is 143B cells. Briefly: Amino acid and TCA cycle metabolite GC-MS analysis, 143B cells. The data set is classed as cell-based. Particulars: for TCA metabolite, aspartate and glutamate pool sizes: wild-type 143B cells, respiration inhibitor alone. Here is the method:
143B and 143B CytB cells were seeded at 400,000 cells/well in 6 well dishes overnight. The following day, cells were washed 2 times in PBS and media was changed to proliferation assay media with or without the indicated treatments. […] Soluble content was then dried under nitrogen gas. Polar samples were derivatized and measured as detailed in (Lewis). Relative metabolite abundances were determined by integrating ion peak area (Metran) and normalized to norvaline internal extraction standard.

Data set [3] concerns Jurkat cells. Briefly: Proliferation assay (Cell Titer Glo, 5 days) of wild type and knock-out Jurkat cells. The data set is classed as cell-based, human. Particulars: 5-day treatment. Here is the method: sgRNAs (oligonucleotide sequences are indicated above) were cloned into lentiCRISPR-v1 linearized with BsmBI by Gibson Assembly (NEB). sgRNA expressing vector along with lentiviral packaging vectors Delta-VPR and CMV VSVG were transfected into HEK-293T cells using the XTremeGene 9 transfection reagent (Roche). Similarly, for overexpression cell lines, cDNA vectors along with retroviral packaging vectors gag-pol and CMV VSV-G were transfected into HEK-293T cells. Media was changed 24 hours after transfection.

The test system of data set [4] is Raji lymphoma and KMS-26 multiple myeloma cells. The data set is classed as cell-based, human. Particulars: 5-day treatment. Here is the method: […]. Media was changed 24 hours after transfection.
Data set [5] concerns 143B cells. Briefly: 13C asparagine labelling, GCMS of aspartate and released asparagine. In kind it is cell-based. Here is the method: FIG. 26. […] (A) Proliferation rate was measured after 4 days in DMEM without pyruvate and the indicated media conditions. Untr; Untreated. AKB; 1 mM alpha-ketobutyrate. Asp; 20 mM aspartate. Asn; asparagine, with the indicated concentrations. (B) GCMS measurement of intracellular levels of aspartate after 24 hours from the indicated treatment conditions. Aspartate levels are shown as the log2 of the measured total ion count (TIC). (C) The proliferation rate from FIG. 26A and the aspartate levels from FIG. 26B were graphed against one another to show a correlation between aspartate levels and proliferation rate. Grey triangles are the untreated conditions, blue squares are the AKB conditions, and green dots are the 1 mM ASN conditions. (D) GCMS measurement of intracellular aspartate levels after a 24-hour incubation in untreated media or media treated with 1 mM ^13C asparagine. The bars are split to show the fraction of aspartate that is unlabeled (M+0) and the fraction of aspartate that is labeled with 4 ^13C carbons (M+4). (E) GCMS measurement of unlabeled (M+0) asparagine released into the media (de novo produced asparagine) after a 24-hour incubation in untreated media or media treated with 1 mM ^13C asparagine.
The mechanism by which extracellular asparagine treatment can restore intracellular aspartate levels was also investigated. First, we treated 143B cells with 1 mM asparagine containing four ^13C carbon atoms. […] The small fraction containing labeled aspartate was likely from ^13C aspartate contamination in the ^13C asparagine added to the media. […] One plausible mechanism by which providing the cells with extracellular asparagine would decrease intracellular aspartate consumption is through product inhibition of asparagine synthetase (ASNS) activity. Decreased ASNS activity would decrease aspartate consumption and therefore increased aspartate levels. To test this, we measured the release of unlabeled asparagine in the media of untreated cells or cells treated with 1 mM ^13C asparagine. […]

In data set [6] the test system is 143B cells. Briefly: Proliferation assay of wild-type 143B cells treated with respiration inhibitors. The data set is classed as cell-based. Particulars: asparagine. Here is the method: as §1, §2
In data set [7] the test system is 143B CytB cells. Briefly: Proliferation assay of respiration-incompetent 143B CytB cybrid cells. In kind it is cell-based. The following applies: media supplemented with the substance; no pyruvate unless tested, uridine present. Here is the method: FL5.12 cells were cultured in the same medium and supplemented with 5 μg/mL recombinant mouse IL-3 (R&D Systems). […] All cells incubated at 37° C. with 5% CO2.
as §2, with “Initial seeding density was 2E4 cells per well for 143B, A172, H1299, HeLa, 143B WT Cybrid, and MEFs and 3E4 cells for 143B CytB and U87 cells.” left out, “For these cell lines at these seeding densities it was determined that for 4 days the cells maintained logarithmic proliferation (data not shown), therefore final cell counts were measured 4 days after treatment.” left out

In data set [8] the test system is A549 lung carcinoma xenografts. Briefly: A549 xenograft study with metformin. The data set is classed as in vivo, nude mice. Here is the method: FIG. 27. In vivo mitochondrial inhibition inhibits cellular proliferation and decreases intracellular growth rate. (A) A549 xenografts in nude mice were treated with varying doses of the mitochondrial inhibitor, metformin, once a day by oral gavage at the indicated concentrations. LCMS measurement of (B) serum and (C) tumor metformin concentration for the indicated metformin treatment conditions. (D) GCMS measurement of intracellular aspartate levels in the tumors following 10 days of the indicated treatment. Aspartate levels are shown as aspartate total ion count (TIC) normalized to leucine TIC.
An in vivo correlation between mitochondrial inhibition and growth inhibition, and further, a correlation between the degree of growth inhibition and intracellular aspartate levels were shown in a xenograft study. A549 lung carcinoma cells were xenografted into nude mice, and the cells were allowed to grow until they formed a tumor 50 mm^3 in volume. When the tumors reached 50 mm^3, the mice were randomly sorted into three groups and treated once a day by oral gavage with vehicle or the mitochondrial inhibitor metformin (500 mg/kg or 1500 mg/kg).

[9] abbreviates: 1 mM 13C asparagine, 24-hour incubation.
Setting [10] is: metformin 500 mg/kg or 1500 mg/kg once a day by oral gavage.

Entries after “also recorded” stand apart in the source; their conditions may differ.

Regarding antimycin [reference compound], the “Proliferation of cell line panel” value in data set [1] is “blocked proliferation”. For the same compound, the “TCA metabolite, aspartate and glutamate pool sizes” value (“TCA metabolite” below) in data set [2] is “decreases in TCA metabolites and aspartate, but not glutamate”. Moreover, the “Sensitivity of GOT1-null versus wild-type cells to other ETC inhibitors” value in data set [3] is given as “GOT1-null cells die; also recorded: substantially more sensitive”. Also, the “Viability of GOT1-null KMS-26 and Raji cells with other mitochondrial toxins” value in data set [4] is “GOT1-null KMS-26 and Raji cells die”.
`NC(=O)C[C@H](N)C(=O)O` [^13C asparagine]: in data set [5] (setting [9]), the Intracellular aspartate levels entry is given as “did increase intracellular aspartate levels” and the “Labelling of intracellular aspartate pool” value is on record as “nearly all of the intracellular aspartate pool was unlabeled (M+0)”.
Consider `NC(=O)C[C@H](N)C(=O)O` [asparagine], for which the “Proliferation of rotenone treated 143B cells” value in data set [6] (high doses of rotenone) is “not able to restore proliferation”; in data set [6] (low doses of rotenone) it was “sufficient to restore proliferation; also recorded: restores intracellular aspartate levels and proliferation in rotenone treated cells”. Moreover, the “Restoration of intracellular aspartate compared to AKB” value in data set [2] (rotenone treated 143B cells, 1 mM asparagine) is listed as “incomplete compared to AKB”. For the same compound, the Intracellular aspartate levels entry in data set [2] (rotenone treated 143B cells, 24 hours, AKB or 1 mM asparagine) is “increased intracellular aspartate; also recorded: restores intracellular aspartate levels and proliferation in rotenone treated cells”. In addition, the “Release of unlabeled (de novo produced) asparagine into the media” value in data set [5] (1 mM 13C asparagine versus untreated, 24 hours) is reported as “produce less asparagine”.
In the case of `C=C(C)[C@H]1Cc2c(ccc3c2O[C@@H]2COc4cc(OC)c(OC)cc4[C@@H]2C3=O)O1` [rotenone, reference compound], the “Proliferation of cell line panel” value in data set [1] is “blocked proliferation”. Further, the “TCA metabolite” value in data set [2] was “decreases in TCA metabolites and aspartate, but not glutamate”.
Regarding `C/C=C(\C)[C@H](O)[C@H](C)/C=C(C)/C=C/C/C(C)=C/Cc1nc(OC)c(OC)c(O)c1C` [piericidin, reference compound], the “Sensitivity of GOT1-null versus wild-type cells to other ETC inhibitors” value in data set [3] was “GOT1-null cells die; also recorded: substantially more sensitive”. Besides, in data set [4], the “Viability of GOT1-null KMS-26 and Raji cells with other mitochondrial toxins” value was “GOT1-null KMS-26 and Raji cells die”.
On to `CC[C@H]1/C=C/C=C/C[C@@H](C)[C@H](O)[C@@](C)(O)C(=O)[C@@H](C)[C@H](O)[C@@H](C)C(=O)[C@@H](C)[C@H](O)[C@@H](C)/C=C/C(=O)O[C@@H]2[C@H](C)[C@H](CC1)O[C@]1(CC[C@H](C)[C@H](C[C@@H](C)O)O1)[C@H]2C` [oligomycin, reference compound], for which the “Proliferation of cell line panel” value in data set [1] is “blocked proliferation”. The “TCA metabolite” value in data set [2] was “decreases in TCA metabolites and aspartate, but not glutamate”.
For the compound `COC(=O)CCC(=O)C(=O)OC` [dimethyl α-ketoglutarate, reference compound], the “Proliferation rate of 143B CytB cells” value in data set [7] is on record as “able to restore some proliferation to 143B CytB cells, albeit at a much lower capacity than aspartate”.
`Nc1nc2nc[nH]c2c(=O)[nH]1` [guanine, reference compound]: the “Proliferation rate of 143B CytB cells” value in data set [7] was “somewhat toxic”.
Take `CN(C)C(=N)N=C(N)N` [metformin]: the “Sensitivity of GOT1-null versus wild-type cells to other ETC inhibitors” value in data set [3] was “substantially more sensitive; also recorded: GOT1-null cells die”. Moreover, the “Normalized intracellular aspartate levels in tumors” value in data set [8] (10 days of treatment, aspartate TIC normalized to leucine TIC) is listed as “decrease in a dose-dependent manner”. For the same compound, the “Tumor concentration of metformin” value in data set [8] (escalating doses of metformin) is recorded as “increased tumor concentration of metformin”. Moreover, in data set [8] (setting [10]), the “Serum concentrations of metformin” value is “at concentrations that would be therapeutically relevant and tolerable in humans”; the Tumor growth entry is given as “dose dependently inhibited tumor growth”.
Take `O=c1[nH]cnc2nc[nH]c12` [hypoxanthine, reference compound]: in data set [7], the “Proliferation rate of 143B CytB cells” value is on record as “no effect on proliferation”.

The values above are taken from patent US10123985B2, “Therapeutic strategies for treating mitochondrial disorders” (Whitehead Institute for Biomedical Research, priority 2015, dated 2018).
